From patent US20220340597A1, “HEXAHYDRO-1H-PYRAZINO[1,2-A]PYRAZINE COMPOUNDS FOR THE TREATMENT OF AUTOIMMUNE DISEASE” (Hoffmann-La Roche Inc., priority 2019, published 2022) come the findings set out here.

This experiment deals with T1, human TLR9 (Homo sapiens, UniProt Q9NR96).
T1 construct: host or cells: HEK293 (HEK-Blue hTLR9)
T1 sequence (Q9NR96 26-1032): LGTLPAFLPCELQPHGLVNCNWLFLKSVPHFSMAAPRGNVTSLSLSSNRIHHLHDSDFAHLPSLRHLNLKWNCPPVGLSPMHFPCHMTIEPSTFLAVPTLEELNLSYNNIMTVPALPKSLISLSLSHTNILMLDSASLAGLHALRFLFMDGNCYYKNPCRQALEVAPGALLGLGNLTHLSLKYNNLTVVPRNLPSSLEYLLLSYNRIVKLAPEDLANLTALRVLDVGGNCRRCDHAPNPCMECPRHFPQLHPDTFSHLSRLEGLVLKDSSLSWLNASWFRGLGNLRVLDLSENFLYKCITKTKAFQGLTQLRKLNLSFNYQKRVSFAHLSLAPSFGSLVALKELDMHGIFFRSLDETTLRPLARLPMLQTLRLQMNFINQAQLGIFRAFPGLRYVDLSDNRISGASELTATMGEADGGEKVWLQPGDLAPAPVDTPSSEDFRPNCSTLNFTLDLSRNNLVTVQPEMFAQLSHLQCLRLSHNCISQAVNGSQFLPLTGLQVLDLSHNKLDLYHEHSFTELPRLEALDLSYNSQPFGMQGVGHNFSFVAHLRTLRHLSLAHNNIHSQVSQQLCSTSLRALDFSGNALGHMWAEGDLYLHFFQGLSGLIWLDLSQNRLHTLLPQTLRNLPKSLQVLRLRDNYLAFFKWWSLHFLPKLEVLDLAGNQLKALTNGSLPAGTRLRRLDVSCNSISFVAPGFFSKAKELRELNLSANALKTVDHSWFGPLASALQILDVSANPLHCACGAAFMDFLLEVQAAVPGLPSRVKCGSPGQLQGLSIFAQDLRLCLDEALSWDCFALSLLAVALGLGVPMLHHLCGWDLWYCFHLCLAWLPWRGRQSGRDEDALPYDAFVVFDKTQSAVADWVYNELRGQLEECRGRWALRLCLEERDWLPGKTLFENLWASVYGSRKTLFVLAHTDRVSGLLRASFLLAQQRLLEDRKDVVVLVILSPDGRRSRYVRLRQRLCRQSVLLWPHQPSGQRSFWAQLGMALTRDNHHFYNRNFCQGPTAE
The experiment is described as follows: HEK293-Blue-hTLR-9 cells assay. The format is cell-based. The conditions noted are these: HEK293-Blue-hTLR9 cells, ODN2006 stimulation, 20 hrs, SEAP reporter; read-out: HEK/hTLR9 IC50.
On to `[2H]c1ccc2c(N3C[C@@H]4CN(Cc5ccc6c(c5)CNCC6)CCN4[C@H](C)C3)ccc(C#N)c2n1` [Example 61, 5-[(4R,9aS)-4-methyl-8-(1,2,3,4-tetrahydroisoquinolin-7-ylmethyl)-3,4,6,7,9,9a-hexahydro-1H-pyrazino[1,2-a]pyrazin-2-yl]-2-deuterio-quinoline-8-carbonitrile], for which the IC50 is 0.064 µM.

Consider `[2H]c1ccc2c(N3C[C@@H]4CN(c5ccc(CN6C[C@@H](N)[C@H](OC)C6)c(C)n5)CCN4[C@@H](C)C3)ccc(C#N)c2n1` [Example 123, 5-[(4S,9aR)-8-[5-[[(3R,4R)-3-amino-4-methoxy-pyrrolidin-1-yl]methyl]-6-methyl-2-pyridyl]-4-methyl-3,4,6,7,9,9a-hexahydro-1H-pyrazino[1,2-a]pyrazin-2-yl]-2-deuterio-quinoline-8-carbonitrile], for which the IC50 worked out at 0.107 µM.

Consider `Cc1cc(N2CCN3[C@@H](C2)CN(c2ccc(C#N)c4ncccc24)C[C@H]3C)cc(N2CC(C)(N)C2)n1` [Example 73, 5-[(4R,9aS)-8-[2-(3-amino-3-methyl-azetidin-1-yl)-6-methyl-4-pyridyl]-4-methyl-3,4,6,7,9,9a-hexahydro-1H-pyrazino[1,2-a]pyrazin-2-yl]quinoline-8-carbonitrile], for which the IC50 was less than 0.032 µM.

For the compound `C[C@@H]1CN(c2ccc(C#N)c3ncccc23)C[C@@H]2CN(c3nccc4c3CCNC4)CCN21` [Example 16, 5-[(4R,9aR)-4-methyl-8-(5,6,7,8-tetrahydro-2,6-naphthyridin-1-yl)-3,4,6,7,9,9a-hexahydro-1H-pyrazino[1,2-a]pyrazin-2-yl]quinoline-8-carbonitrile], the IC50 amounted to 0.12 µM.

`Cc1cnc(N2CCN3[C@@H](C2)CN(c2ccc(C#N)c4ncccc24)C[C@H]3C)nc1N1CCNCC1` [Example 43, 5-[(4R,9aR)-4-methyl-8-(5-methyl-4-piperazin-1-yl-pyrimidin-2-yl)-3,4,6,7,9,9a-hexahydro-1H-pyrazino[1,2-a]pyrazin-2-yl]quinoline-8-carbonitrile]: the IC50 worked out at 0.078 µM.

As for `C[C@@H]1CN(c2ccc(C#N)c3ncccc23)C[C@@H]2CN(c3ccnc(N4CC[C@@](C)(N)C4)c3)CCN21` [Example 105, 5-[(4R,9aS)-8-[2-[(3R)-3-amino-3-methyl-pyrrolidin-1-yl]-4-pyridyl]-4-methyl-3,4,6,7,9,9a-hexahydro-1H-pyrazino[1,2-a]pyrazin-2-yl]quinoline-8-carbonitrile], the IC50 was less than 0.032 µM.

Turning to `C[C@@H]1CN(c2ccc(C#N)c3ncccc23)C[C@@H]2CN(c3ccnc(N4CC(C)(N)C4)c3)CCN21` [Example 56, 5-[(4R,9aS)-8-[2-(3-amino-3-methyl-azetidin-1-yl)-4-pyridyl]-4-methyl-3,4,6,7,9,9a-hexahydro-1H-pyrazino[1,2-a]pyrazin-2-yl]quinoline-8-carbonitrile], the IC50 was less than 0.032 µM.

Regarding `C[C@@H]1CN(c2ccc(C#N)c3ncccc23)C[C@@H]2CN(Cc3cccc4c3CCNC4)CCN21` [Example 70, 5-[(4R,9aS)-4-methyl-8-(1,2,3,4-tetrahydroisoquinolin-5-ylmethyl)-3,4,6,7,9,9a-hexahydro-1H-pyrazino[1,2-a]pyrazin-2-yl]quinoline-8-carbonitrile], the IC50 worked out at 0.097 µM.

On to `[2H]c1ccc2c(N3C[C@@H]4CN(CCc5ccc(N6CC7(CN(C)C7)C6)nc5)CCN4[C@H](C)C3)ccc(C#N)c2n1` [Example 64, 5-[(4R,9aS)-4-methyl-8-[2-[6-(6-methyl-2,6-diazaspiro[3.3]heptan-2-yl)-3-pyridyl]ethyl]-3,4,6,7,9,9a-hexahydro-1H-pyrazino[1,2-a]pyrazin-2-yl]-2-deuterio-quinoline-8-carbonitrile], for which the IC50 was determined as 0.032 µM.

`C[C@@H]1CN(c2ccc(C#N)c3ncccc23)C[C@@H]2CN(CCc3ccc(N4CCNCC4)cc3)CCN21` [Example 7, 5-[(4R,9aS)-4-methyl-8-[2-(4-piperazin-1-ylphenyl)ethyl]-3,4,6,7,9,9a-hexahydro-1H-pyrazino[1,2-a]pyrazin-2-yl]quinoline-8-carbonitrile]: the IC50 was less than 0.032 µM.

`Cc1cc(N2CCN3[C@@H](C2)CN(c2ccc(C#N)c4ncccc24)C[C@H]3C)nc(N2CCNCC2)n1` [Example 31, 5-[(4R,9aR)-4-methyl-8-(6-methyl-2-piperazin-1-yl-pyrimidin-4-yl)-3,4,6,7,9,9a-hexahydro-1H-pyrazino[1,2-a]pyrazin-2-yl]quinoline-8-carbonitrile]: the IC50 worked out at 0.085 µM.

Turning to `C[C@@H]1CN(c2ccc(C#N)c3ncccc23)C[C@@H]2CN(CCc3ccc(N4C[C@H]5NCCO[C@@H]5C4)nc3)CCN21` [Example 124, 5-[(4R,9aS)-8-[2-[6-[(4aR,7aR)-3,4,4a,5,7,7a-hexahydro-2H-pyrrolo[3,4-b][1,4]oxazin-6-yl]-3-pyridyl]ethyl]-4-methyl-3,4,6,7,9,9a-hexahydro-1H-pyrazino[1,2-a]pyrazin-2-yl]quinoline-8-carbonitrile], the IC50 amounted to 0.055 µM.

As to `CO[C@@H]1CN(c2ccc(CCN3CCN4[C@@H](C3)CN(c3ccc(C#N)c5ncccc35)C[C@H]4C)nc2)C[C@H]1N` [Example 13, 5-[(4R,9aS)-8-[2-[5-[(3R,4R)-3-amino-4-methoxy-pyrrolidin-1-yl]-2-pyridyl]ethyl]-4-methyl-3,4,6,7,9,9a-hexahydro-1H-pyrazino[1,2-a]pyrazin-2-yl]quinoline-8-carbonitrile], the IC50 was 0.04 µM.

As to `C[C@@H]1CN(c2ccc(C#N)n3ncc(F)c23)C[C@@H]2CN(CCc3ccc(N4CC(C)(N)C4)nc3)CCN21` [Example 74, 4-[(4R,9aS)-8-[2-[6-(3-amino-3-methyl-azetidin-1-yl)-3-pyridyl]ethyl]-4-methyl-3,4,6,7,9,9a-hexahydro-1H-pyrazino[1,2-a]pyrazin-2-yl]-3-fluoro-pyrazolo[1,5-a]pyridine-7-carbonitrile], the IC50 is 0.048 µM.

With `[2H]c1ccc2c(N3C[C@@H]4CN(c5ncc(C(=O)N6CC7(CN(C)C7)C6)cc5C)CCN4[C@@H](C)C3)ccc(C#N)c2n1` [Example 103, 5-[(4S,9aR)-4-methyl-8-[3-methyl-5-(6-methyl-2,6-diazaspiro[3.3]heptane-2-carbonyl)-2-pyridyl]-3,4,6,7,9,9a-hexahydro-1H-pyrazino[1,2-a]pyrazin-2-yl]-2-deuterio-quinoline-8-carbonitrile], the IC50 turned out to be 0.087 µM.

Turning to `C[C@@H]1CN(c2ccc(C#N)c3ncccc23)C[C@@H]2CN(Cc3cccc4c3CNC4)CCN21` [Example 72, 5-[(4R,9aS)-8-(isoindolin-4-ylmethyl)-4-methyl-3,4,6,7,9,9a-hexahydro-1H-pyrazino[1,2-a]pyrazin-2-yl]quinoline-8-carbonitrile], the IC50 was found to be 0.089 µM.

Turning to `C[C@@H]1CN(c2ccc(C#N)c3ncccc23)C[C@@H]2CN(CCc3ccc(N4CCN[C@@H](C)C4)cn3)CCN21` [Example 20, 5-[(4R,9aS)-4-methyl-8-[2-[5-[(3S)-3-methylpiperazin-1-yl]-2-pyridyl]ethyl]-3,4,6,7,9,9a-hexahydro-1H-pyrazino[1,2-a]pyrazin-2-yl]quinoline-8-carbonitrile], the IC50 came out at 0.056 µM.

Turning to `[2H]c1ccc2c(N3C[C@@H]4CN(c5ccc(CCN6C[C@@H](N)[C@@H](F)C6)nc5)CCN4[C@@H](C)C3)ccc(C#N)c2n1` [Example 117, 5-[(4S,9aR)-8-[6-[2-[(3R,4S)-3-amino-4-fluoro-pyrrolidin-1-yl]ethyl]-3-pyridyl]-4-methyl-3,4,6,7,9,9a-hexahydro-1H-pyrazino[1,2-a]pyrazin-2-yl]-2-deuterio-quinoline-8-carbonitrile], the IC50 is 0.042 µM.
